Results published in the NIST ThermoML archive (doi:10.1016/j.fluid.2015.03.025).
± gives the expanded uncertainty stated by the source.

Assay: xn = mol fraction of the nth substance listed
Conditions: 101 kPa, Liquid; for mass density: Buoyancy - hydrostatic balance; for electrical conductivity: Alternating current cell with electrodes; for viscosity: Capillary tube (Ostwald / Ubbelohde) method

C[N+](C)(C)CCO.[Cl-] [choline chloride] + OCCO
x1 = 0.5
Conditions	electrical conductivity [S/m]	mass density [kg/m3]	viscosity [mPa·s]
301.55 K	–	1048.21 ± 0.72	–
303.04 K	0.838 ± 0.008	–	–
307.95 K	–	1046.1 ± 0.71	–
308.15 K	0.917 ± 0.008	–	–
312.74 K	0.986 ± 0.008	–	–
313.15 K	–	1044.28 ± 0.71	25.3 ± 0.3
317.51 K	1.054 ± 0.008	–	–
317.55 K	–	1042.81 ± 0.71	–
318.15 K	–	–	21.7 ± 0.2
322.85 K	–	1041.05 ± 0.71	–
323.15 K	1.123 ± 0.008	–	18.3 ± 0.2
327.35 K	–	1039.36 ± 0.7	–
328.15 K	1.186 ± 0.008	–	16.3 ± 0.2
333.15 K	1.264 ± 0.008	–	14.4 ± 0.2
333.25 K	–	1036.72 ± 0.7	–
338.15 K	–	1034.68 ± 0.7	12.4 ± 0.1
343.15 K	1.414 ± 0.008	–	10.5 ± 0.1
347.85 K	–	1030.78 ± 0.69	–
348.15 K	–	–	9.6 ± 0.1
353.15 K	1.519 ± 0.008	1028.98 ± 0.69	8.7 ± 0.1

O=C(O)C(=O)O [ethanedioic acid] + C[N+](C)(C)CCO.[Cl-]
x2 = 0.5
Conditions	electrical conductivity [S/m]	mass density [kg/m3]	viscosity [mPa·s]
300.15 K	–	1160.6 ± 0.93	–
303.05 K	0.483 ± 0.008	–	–
303.15 K	–	–	119.4 ± 2.1
304.15 K	–	1158.66 ± 0.93	–
308.15 K	0.56 ± 0.008	–	101.1 ± 1.6
312.75 K	0.638 ± 0.008	1153.06 ± 0.92	–
313.15 K	–	–	82.7 ± 1.2
317.55 K	0.727 ± 0.008	–	–
318.15 K	–	1150.57 ± 0.91	60.2 ± 0.8
323.15 K	0.808 ± 0.008	1148.23 ± 0.91	43.7 ± 0.7
328.15 K	0.886 ± 0.008	–	37 ± 0.7
328.65 K	–	1146.23 ± 0.91	–
333.15 K	0.981 ± 0.008	–	31.9 ± 0.7
334.15 K	–	1142.66 ± 0.9	–
343.15 K	1.144 ± 0.008	1137.16 ± 0.89	20.1 ± 0.6
348.15 K	–	–	16.8 ± 0.6
348.65 K	–	1135.11 ± 0.89	–
353.15 K	1.288 ± 0.008	1133.19 ± 0.89	14.3 ± 0.6

OCCN(CCO)CCO [triethanolamine] + C[N+](C)(C)CCO.[Cl-]
x2 = 0.5
Conditions	electrical conductivity [S/m]	mass density [kg/m3]	viscosity [mPa·s]
312.75 K	0.013 ± 0.008	–	–
313.15 K	–	1044.2 ± 0.34	83 ± 1
317.55 K	0.008 ± 0.008	–	–
318.15 K	–	–	64.8 ± 0.8
318.25 K	–	1042.56 ± 0.34	–
323.15 K	0.008 ± 0.008	–	44.9 ± 0.7
323.25 K	–	1040.96 ± 0.34	–
328.15 K	0.013 ± 0.008	–	39.9 ± 0.7
328.35 K	–	1039.12 ± 0.34	–
333.15 K	0.007 ± 0.008	–	33 ± 0.6
333.25 K	–	1037.41 ± 0.34	–
338.15 K	0.017 ± 0.008	–	27.2 ± 0.6
338.45 K	–	1035.68 ± 0.34	–
343.15 K	0.018 ± 0.008	–	21.3 ± 0.6
343.25 K	–	1034.09 ± 0.34	–
348.15 K	0.006 ± 0.008	–	18.8 ± 0.6
348.55 K	–	1032.59 ± 0.33	–
350.45 K	–	1032.09 ± 0.33	–
353.15 K	0.008 ± 0.008	1031.28 ± 0.33	–
